Assay results taken from patent publication US8217035B2, “Pyrimidine derivatives used as PI-3-kinase inhibitors” (Novartis AG, priority 2006, dated 2012).
pEC50, pIC50: −log10 of the molar value. Where two headings read alike, the source gives them in different places.

Key:
[1] = tested on: A2780 ovarian cancer cells; assay: Cellular proliferation in A2780 cells, Cell Titer Glo (Biological Method 4); format: cell-based; conditions: Homo sapiens
In short: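 Viability after 72 h compound exposure (37 °C, 5% CO2) was read by Cell Titer Glo and an EC50 derived, each condition in duplicate. A2780 ovarian cells had been plated at 1,000 per well in DMEM/10% FBS at least 2 h beforehand.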

PI3 kinase alpha = PI3 kinase alpha (Homo sapiens, UniProt P42336); assay: PI3K ATP depletion assay (Biological Method 1, Assay 3; KinaseGlo luminescence); format: biochemical; conditions: ATP depletion assay, read-out: PI3 Kinase Alpha, IC50
Chain of PI3 kinase alpha (P42336 whole entry): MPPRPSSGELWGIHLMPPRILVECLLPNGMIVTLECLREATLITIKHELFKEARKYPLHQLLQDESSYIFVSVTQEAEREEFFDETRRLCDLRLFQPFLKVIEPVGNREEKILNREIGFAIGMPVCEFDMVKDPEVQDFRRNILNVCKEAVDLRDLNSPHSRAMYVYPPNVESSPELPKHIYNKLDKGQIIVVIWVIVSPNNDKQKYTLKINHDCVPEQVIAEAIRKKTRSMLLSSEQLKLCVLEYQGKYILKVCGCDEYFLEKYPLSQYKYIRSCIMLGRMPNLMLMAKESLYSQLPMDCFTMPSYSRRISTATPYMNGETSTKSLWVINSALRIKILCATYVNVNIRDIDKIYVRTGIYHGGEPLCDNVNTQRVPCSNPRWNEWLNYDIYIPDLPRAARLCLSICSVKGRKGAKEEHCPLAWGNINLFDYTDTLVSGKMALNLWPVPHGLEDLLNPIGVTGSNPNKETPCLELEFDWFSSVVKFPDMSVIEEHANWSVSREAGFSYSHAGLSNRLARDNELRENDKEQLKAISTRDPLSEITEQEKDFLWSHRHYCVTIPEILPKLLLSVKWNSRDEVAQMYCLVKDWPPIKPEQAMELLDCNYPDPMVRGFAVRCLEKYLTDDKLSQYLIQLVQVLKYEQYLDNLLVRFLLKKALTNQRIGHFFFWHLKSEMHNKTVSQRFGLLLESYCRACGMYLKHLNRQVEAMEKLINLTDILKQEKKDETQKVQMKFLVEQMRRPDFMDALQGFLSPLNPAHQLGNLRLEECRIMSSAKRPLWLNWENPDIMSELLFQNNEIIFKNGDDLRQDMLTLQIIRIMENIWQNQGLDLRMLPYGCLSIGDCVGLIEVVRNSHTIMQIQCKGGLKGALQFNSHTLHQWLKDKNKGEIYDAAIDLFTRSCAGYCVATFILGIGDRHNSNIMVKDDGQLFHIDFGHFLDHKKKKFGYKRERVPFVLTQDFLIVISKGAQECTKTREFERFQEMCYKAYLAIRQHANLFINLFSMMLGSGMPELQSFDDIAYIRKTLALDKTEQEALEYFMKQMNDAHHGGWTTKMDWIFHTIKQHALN
Chain of PI3 kinase alpha (P27986 whole entry partner): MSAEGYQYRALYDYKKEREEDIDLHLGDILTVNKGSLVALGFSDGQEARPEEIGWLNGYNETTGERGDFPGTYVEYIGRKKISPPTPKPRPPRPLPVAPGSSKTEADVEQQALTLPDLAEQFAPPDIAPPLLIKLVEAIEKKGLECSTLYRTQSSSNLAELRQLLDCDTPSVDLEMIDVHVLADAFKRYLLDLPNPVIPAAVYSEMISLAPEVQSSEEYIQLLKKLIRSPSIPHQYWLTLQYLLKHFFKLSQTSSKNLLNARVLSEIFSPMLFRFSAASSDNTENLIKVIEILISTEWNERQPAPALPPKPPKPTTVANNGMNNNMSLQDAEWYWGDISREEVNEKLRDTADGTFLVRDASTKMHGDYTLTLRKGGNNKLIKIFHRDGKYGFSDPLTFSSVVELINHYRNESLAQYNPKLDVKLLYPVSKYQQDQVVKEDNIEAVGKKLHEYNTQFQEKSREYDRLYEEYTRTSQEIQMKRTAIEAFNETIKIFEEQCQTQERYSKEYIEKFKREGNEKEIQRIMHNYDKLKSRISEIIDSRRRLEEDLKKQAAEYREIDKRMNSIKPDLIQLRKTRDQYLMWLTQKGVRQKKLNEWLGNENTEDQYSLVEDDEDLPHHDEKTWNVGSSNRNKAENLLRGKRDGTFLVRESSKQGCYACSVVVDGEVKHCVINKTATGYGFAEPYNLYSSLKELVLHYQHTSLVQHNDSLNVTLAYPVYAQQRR
In short: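 Compound in DMSO was mixed with 10 nM PI3 kinase and 5 μg/mL phosphatidylinositol, and the reaction was started with 2 μM ATP. It ran to about 50% ATP depletion and was stopped with KinaseGlo.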

[2] = ovarian cancer cell line A2780, Biological Method 4

| pEC50 [1, 2] | pIC50 (PI3 kinase alpha; Biological Method 1) | pEC50 ([1]; ovarian cancer cell line A2780) | pIC50 (PI3 kinase alpha) | Structure (SMILES) |
| --- | --- | --- | --- | --- |
| > 6.00 | > 6.00 | – | – | Nc1ncc(-c2cc(-c3cncc(O)c3)nc(N3CCOCC3)n2)cn1 [Compound 274] |
| – | – | > 5.00 | > 6.00 | Nc1ccc(-c2cc(-c3cccnc3F)nc(N3CCOCC3)n2)cn1 [Compound 508] |
| > 5.00 | > 6.00 | – | – | Nc1ccc(-c2cc(-n3ncc4cccc(N)c43)nc(N3CCOCC3)n2)cn1 [Compound 345] |
| > 5.00 | > 6.00 | – | – | N#Cc1cccc(Nc2cc(-c3cnc(N)nc3)nc(N3CCOCC3)n2)c1 [Compound 307] |
| – | – | > 4.60 | > 6.00 | Nc1ncc(-c2cc(Cl)nc(N3CCOCC3)n2)c(N)n1 [Compound 464] |
| – | – | > 4.60 | > 6.00 | Nc1cc(C(F)(F)F)c(-c2ccnc(N3CCOCC3)n2)cn1 [Compound 466] |
| – | – | > 5.00 | > 6.00 | Nc1cc(C(F)(F)F)c(-c2cc(Nc3cnc4ccc(OCCN5CCCC5)cc4c3)nc(N3CCOCC3)n2)cn1 [Compound 489] |
| > 5.00 | > 6.00 | – | – | Nc1cc(C(F)(F)F)c(-c2cc(Nc3cc(Cl)ccn3)nc(N3CCOCC3)n2)cn1 [Compound 241] |
| > 5.00 | > 6.00 | – | – | CN1CCN(c2ccc(Nc3cc(-c4ccc(N)nc4)nc(N4CCOCC4)n3)cn2)CC1 [Compound 300] |
| – | – | > 5.00 | > 6.00 | Nc1ccc(-c2cc(Nc3ccc4ccccc4n3)nc(N3CCOCC3)n2)cn1 [Compound 438] |
| > 4.60 | > 6.00 | – | – | Nc1cc(C(F)(F)F)c(-c2cc(N3CCOC(C(=O)O)C3)nc(N3CCOCC3)n2)cn1 (stereo not drawn) [Compound 333] |
| > 5.00 | > 6.00 | – | – | Nc1ccc(-c2cc(N3CCOc4ccccc43)nc(N3CCOCC3)n2)cn1 [Compound 387] |
| > 5.00 | > 6.00 | – | – | Nc1ncc(-c2cc(NC3CCOCC3)nc(N3CCOCC3)n2)c(C(F)(F)F)n1 [Compound 321] |
| – | – | > 4.60 | > 6.00 | Nc1ncc(-c2cc(NCC3CCCCC3)nc(N3CCOCC3)n2)cn1 [Compound 406] |
| > 4.60 | > 6.00 | – | – | CN(C)C(=O)C1CN(c2cc(-c3cnc(N)cc3C(F)(F)F)nc(N3CCOCC3)n2)CCO1 (stereo not drawn) [Compound 326] |
| > 5.00 | > 6.00 | – | – | Nc1cc(C(F)(F)F)c(-c2cc(-c3cncc(CN4CCCC4)c3)nc(N3CCOCC3)n2)cn1 [Compound 264] |
| > 5.00 | > 6.00 | – | – | Nc1ccc(-c2cc(Sc3ccccn3)nc(N3CCOCC3)n2)cn1 [Compound 295] |
| > 5.00 | > 6.00 | – | – | Nc1ncc(-c2cc(-c3ccc(F)nc3)nc(N3CCOCC3)n2)cn1 [Compound 278] |
| > 6.00 | > 6.00 | – | – | COc1cncc(-c2cc(-c3ccc(N)nc3)nc(N3CCOCC3)n2)c1 [Compound 275] |
| > 5.00 | > 6.00 | – | – | COc1ccccc1Nc1cc(-c2cnc(N)nc2)nc(N2CCOCC2)n1 [Compound 306] |
| – | – | > 5.00 | > 6.00 | CC(C)N1CCN(c2ccc(Nc3cc(-c4cnc(N)cc4C(F)(F)F)nc(N4CCOCC4)n3)cn2)CC1 [Compound 488] |
| – | – | > 6.00 | > 6.00 | Nc1cc(C(F)(F)F)c(-c2cc(N3CCN(c4ccccc4)C3=O)nc(N3CCOCC3)n2)cn1 [Compound 18] |
| > 4.60 | > 6.00 | – | – | COc1ccccc1CCNc1cc(-c2ccc(N)nc2)nc(N2CCOCC2)n1 [Compound 304] |
| – | – | > 4.60 | > 6.00 | Nc1ncc(-c2ccnc(N3CCOCC3)n2)c(N)n1 [Compound 463] |
| – | – | > 5.00 | > 6.00 | CC(C)(C)OC(=O)N1CCC(Oc2cc(-c3cnc(N)cc3C(F)(F)F)nc(N3CCOCC3)n2)CC1 [Compound 456] |
| > 5.00 | > 6.00 | – | – | Nc1cc(C(F)(F)F)c(-c2cc(Nc3ccc(OC4CCOC4)nc3)nc(N3CCOCC3)n2)cn1 (stereo not drawn) [Compound 268] |
| – | – | > 5.00 | > 6.00 | CC(=O)N1CCC[C@H](Oc2cc(-c3cnc(N)cc3C(F)(F)F)nc(N3CCOCC3)n2)C1 [Compound 455] |
